Results from ChEMBL document CHEMBL1139762, “Novel substituted tetrahydrotriazaacenaphthylene derivatives as potent CRF1 receptor antagonists” (Bioorg Med Chem Lett, 2007).

Assays:
[1] = biological target: T1, Corticotropin-releasing factor receptor 1 (Homo sapiens, UniProt P34998); assay: Displacement of [125I]CRF from human recombinant CRF1 receptor expressed in CHO cell membrane; type: cell membranes
T1 sequence (P34998 whole entry): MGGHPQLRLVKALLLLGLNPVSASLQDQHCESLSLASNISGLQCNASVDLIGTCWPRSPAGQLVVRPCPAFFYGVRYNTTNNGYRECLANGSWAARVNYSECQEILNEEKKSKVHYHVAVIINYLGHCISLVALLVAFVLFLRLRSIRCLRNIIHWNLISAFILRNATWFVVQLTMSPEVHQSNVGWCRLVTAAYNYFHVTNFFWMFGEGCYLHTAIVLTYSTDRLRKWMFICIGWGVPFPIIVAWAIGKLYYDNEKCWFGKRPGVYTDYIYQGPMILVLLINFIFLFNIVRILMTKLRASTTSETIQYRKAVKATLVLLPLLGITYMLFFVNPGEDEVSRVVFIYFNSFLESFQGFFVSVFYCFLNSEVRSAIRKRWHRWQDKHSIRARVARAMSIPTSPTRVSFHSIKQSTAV

[2] = Half life in Sprague-Dawley rat at 1 mg/kg, po and 0.4 mg/kg, iv; type: ADME, organism-based; details: in vivo
[3] = Oral bioavailability in Sprague-Dawley rat at 1 mg/kg; type: ADME, organism-based; details: in vivo
[4] = Volume of distribution at steady state in Sprague-Dawley rat at 1 mg/kg, po and 0.4 mg/kg, iv; type: ADME, organism-based; details: in vivo, read-out: Vdss
[5] = Plasma clearance in Sprague-Dawley rat at 1 mg/kg, po and 0.4 mg/kg, iv; type: ADME, organism-based
[6] = AUC in Sprague-Dawley rat at 1 mg/kg, po and 0.4 mg/kg, iv; type: ADME, organism-based; details: plasma

Row | IC50 [1] | half-life [2] | bioavailability [3] | Vd [4] | clearance [5] | AUC [6] | Structure (SMILES)
1 | 15.8 nM |  |  |  |  |  | CCCC(CCC)n1cc2c3c(nc(C)nc31)N(c1ccc(C(F)(F)F)cc1C(F)(F)F)CC2
2 | 15.8 nM |  |  |  |  |  | CCCCN(CC)c1nc(C)nc2c1c(C)cn2-c1c(C)cc(C)cc1C [CP-154526]
3 | 50.1 nM |  |  |  |  |  | CCCC(CCC)n1cc2c3c(nc(C)nc31)N(c1ccc(C#N)cc1C)CC2
4 | 50.1 nM |  |  |  |  |  | CCC(CC)n1cc2c3c(nc(C)cc31)N(c1ccc(OC)c(F)c1)CC2
5 | 126 nM |  |  |  |  |  | CCCC(CCC)n1cc2c3c(nc(C)cc31)N(c1ccc(OC)cc1C)CC2
6 | 25.1 nM |  |  |  |  |  | CCC(CC)n1cc2c3c(nc(C)nc31)N(c1ccc(C(F)(F)F)cc1C(F)(F)F)CC2
7 | 63.1 nM |  |  |  |  |  | CCC(CC)n1cc2c3c(nc(C)cc31)N(c1ccc(OC)cc1)CC2
8 | 3.98 nM | 6.7 h | < 5% | 17 L/kg | 54 mL/min/kg | < 15 ng·h/mL | CCCC(CCC)n1cc2c3c(nc(C)cc31)N(c1ccc(C#N)cc1C)CC2
9 | 39.8 nM |  |  |  |  |  | COCC(COC)Nc1nc(C)nc2c(-c3ccc(Cl)cc3Cl)c(C)nn12
10 | 12.6 nM |  |  |  |  |  | CCC(CC)n1cc2c3c(nc(C)cc31)N(c1ccc(OC)cc1C)CC2
11 | 100 nM | 5.3 h | 71% | 2.5 L/kg | 8 mL/min/kg | 1480 ng·h/mL | CCCC(CCC)n1cc2c3c(nc(C)cc31)N(c1ccc(C(F)(F)F)cc1C(F)(F)F)CC2
12 | 31.6 nM |  |  |  |  |  | CCCC(CCC)N1CCC2CN(c3ccc(Cl)cc3Cl)c3nc(C)nc1c32 (stereo not drawn)
13 | 12.6 nM |  |  |  |  |  | CCC(CC)n1cc2c3c(nc(C)cc31)N(c1ccc(C#N)cc1C)CC2
14 | 126 nM | 7.6 h | 28% | 6.8 L/kg | 21 mL/min/kg | 222 ng·h/mL | CCC(CC)n1cc2c3c(nc(C)cc31)N(c1ccc(C(F)(F)F)cc1C(F)(F)F)CC2
15 | 158 nM |  |  |  |  |  | CCC(COC)n1cc2c3c(nc(C)cc31)N(c1ccc(OC)cc1C)CC2 (stereo not drawn)
16 | 79.4 nM |  |  |  |  |  | CCC(CC)n1cc2c3c(nc(C)cc31)N(c1ccc(OC(F)(F)F)cc1C)CC2
17 | 39.8 nM |  |  |  |  |  | CCC(COC)n1cc2c3c(nc(C)cc31)N(c1ccc(C#N)cc1C)CC2 (stereo not drawn)
18 | 39.8 nM | 8.6 h | 37% | 24 L/kg | 47 mL/min/kg | 131 ng·h/mL | CCCC(CCC)n1cc2c3c(nc(C)cc31)N(c1ccc(OC)c(F)c1)CC2
